Measured values from PubChem BioAssay AID330 (DTP/NCI, 2004).
“And” between values parts separate entries of the source, which are not always exact repeats. Equal entries are not always repeated. Inconclusive results and toxic doses are left out. Rule for the calls: active = survival T/C of 150% or more; inactive = T/C below 125% in these data.

Test system: P388 leukemia ip, CD2F1 mice, survival T/C
Test: NCI In Vivo Anticancer Drug Screen. Data for tumor model P388 Leukemia (intraperitoneal) in CD2F1 (CDF1) mice
Settings: endpoint: median survival time, higher = longer survival
Summary of the method: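 Mice carrying the transplanted tumor received test compound or vehicle. Survival was recorded in each group, and the value is the treated-group measurement divided by that of the vehicle-treated control group.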

[1] = dose: 50.0 mg/kg/injection, schedule: Q01DX005 (ip), vehicle: saline with Tween-80
[2] = dose: 100.0 mg/kg/injection, schedule: Q01DX005 (ip), vehicle: saline with Tween-80
[3] = dose: 200.0 mg/kg/injection, schedule: Q01DX005 (ip), vehicle: saline with Tween-80
[4] = dose: 3.12 mg/kg/injection, schedule: Q01DX009 (ip), vehicle: saline
[5] = dose: 6.25 mg/kg/injection, schedule: Q01DX009 (ip), vehicle: saline
[6] = dose: 12.5 mg/kg/injection, schedule: Q01DX009 (ip), vehicle: saline
[7] = dose: 25.0 mg/kg/injection, schedule: Q01DX009 (ip), vehicle: saline
[8] = dose: 50.0 mg/kg/injection, schedule: Q01DX005 (ip), vehicle: saline
[9] = dose: 100.0 mg/kg/injection, schedule: Q01DX005 (ip), vehicle: saline
[10] = dose: 200.0 mg/kg/injection, schedule: Q01DX005 (ip), vehicle: saline
[11] = dose: 60.0 mg/kg/injection, schedule: Q01DX005 (ip), vehicle: saline with Tween-80
[12] = dose: 120.0 mg/kg/injection, schedule: Q01DX005 (ip), vehicle: saline with Tween-80
[13] = dose: 240.0 mg/kg/injection, schedule: Q01DX005 (ip), vehicle: saline with Tween-80
[14] = dose: 50.0 mg/kg/injection, schedule: Q01DX009 (ip), vehicle: saline
[15] = dose: 100.0 mg/kg/injection, schedule: Q01DX001 (ip), vehicle: saline with Tween-80
[16] = dose: 200.0 mg/kg/injection, schedule: Q01DX001 (ip), vehicle: saline with Tween-80
[17] = dose: 400.0 mg/kg/injection, schedule: Q01DX001 (ip), vehicle: saline with Tween-80
[18] = dose: 12.5 mg/kg/injection, schedule: Q01DX009 (ip), vehicle: saline with Tween-80

Measured: T/C

CSc1nc2c(SC)ncnc2s1
inactive: dose: 100.0 mg/kg/injection, schedule: Q01DX001 (ip), vehicle: distilled water + alcohol 103 % of control | dose: 200.0 mg/kg/injection, schedule: Q01DX001 (ip), vehicle: distilled water + alcohol 94 % of control | dose: 400.0 mg/kg/injection, schedule: Q01DX001 (ip), vehicle: distilled water + alcohol 98 % of control

C=Cc1ccccc1NC(C(=O)O)c1ccccc1 (configuration not stated)
inactive: [1] 107 % of control | [2] 106 % of control | [3] 104 % of control

CSCCC(NC=O)C(=O)O (configuration not stated)
inactive: [4] 88 % of control | [5] 91 % of control | [6] 87 % of control | [7] 92 % of control | [8] 98 % of control | [9] 98 % of control | [10] 98 % of control

OCC12CCCC(CO)(COC1)C2O (configuration not stated)
inactive: dose: 25.0 mg/kg/injection, schedule: Q01DX005 (ip), vehicle: saline 105 % of control | [8] 105 % of control | [9] 100 % of control | [10] 115 % of control

O=C(Nc1cc(-c2ccccc2)[nH]n1)c1ccccc1Cl
inactive: [11] 100 % of control | [12] 93 % of control | [13] 93 % of control

COc1cccc(C[n+]2ccccc2C#N)c1
inactive: [6] 100 % of control | [7] 106 % of control | [14] 100 % of control and 96 % of control

CC1(C)CC(C)(OC(=O)c2ccc([N+](=O)[O-])cc2)[N+]([O-])=N1 (configuration not stated)
inactive: dose: 12.5 mg/kg/injection, schedule: Q01DX009 (ip), vehicle: other 96 % of control | dose: 25.0 mg/kg/injection, schedule: Q01DX009 (ip), vehicle: other 100 % of control | dose: 50.0 mg/kg/injection, schedule: Q01DX009 (ip), vehicle: other 95 % of control | dose: 100.0 mg/kg/injection, schedule: Q01DX009 (ip), vehicle: other 94 % of control | dose: 200.0 mg/kg/injection, schedule: Q01DX009 (ip), vehicle: other 88 % of control

CC1=C(C(N)=O)C(c2ccccc2Cl)NC(=S)N1 (configuration not stated)
inactive: dose: 60.0 mg/kg/injection, schedule: Q01DX005 (ip), vehicle: Klucel (hydroxypropylcellulose) (HPC) 117 % of control | dose: 120.0 mg/kg/injection, schedule: Q01DX005 (ip), vehicle: Klucel (hydroxypropylcellulose) (HPC) 98 % of control | dose: 240.0 mg/kg/injection, schedule: Q01DX005 (ip), vehicle: Klucel (hydroxypropylcellulose) (HPC) 99 % of control

CC(O)CO (configuration not stated)
inactive: dose: 1.56 % in 0.5 ml injection vol, schedule: Q01DX009 (ip), vehicle: water 112 % of control | dose: 3.12 % in 0.5 ml injection vol, schedule: Q01DX009 (ip), vehicle: water 119 % of control | dose: 6.25 % in 0.5 ml injection vol, schedule: Q01DX009 (ip), vehicle: water 110 % of control and 119 % of control | dose: 12.5 % in 0.5 ml injection vol, schedule: Q01DX009 (ip), vehicle: water 111 % of control and 113 % of control | dose: 25.0 % in 0.5 ml injection vol, schedule: Q01DX009 (ip), vehicle: water 104 % of control and 110 % of control | dose: 50.0 % in 0.5 ml injection vol, schedule: Q01DX009 (ip), vehicle: water 88 % of control

CC1(C)OCC2OC3OC(C)(C)OC3C(OS(C)(=O)=O)C2O1 (configuration not stated)
inactive: [1] 98 % of control | [2] 105 % of control | [3] 99 % of control

COc1cc(O)ccc1C(=S)SC
inactive: dose: 100.0 mg/kg/injection, schedule: Q04DX003 (ip), vehicle: saline with Tween-80 106 % of control | dose: 200.0 mg/kg/injection, schedule: Q04DX003 (ip), vehicle: saline with Tween-80 99 % of control

O=C1C=Cc2ccccc2C1=C1SCCS1
inactive: dose: 50.0 mg/kg/injection, schedule: Q01DX009 (ip), vehicle: Klucel (hydroxypropylcellulose) (HPC) 103 % of control | dose: 100.0 mg/kg/injection, schedule: Q01DX009 (ip), vehicle: Klucel (hydroxypropylcellulose) (HPC) 93 % of control | dose: 200.0 mg/kg/injection, schedule: Q01DX009 (ip), vehicle: Klucel (hydroxypropylcellulose) (HPC) 90 % of control

COc1cc2c(cc1OC)C(c1ccccc1)ON(C)CC2 (configuration not stated)
inactive: dose: 50.0 mg/kg/injection, schedule: Q01DX005 (ip), vehicle: Klucel (hydroxypropylcellulose) (HPC) 100 % of control | dose: 100.0 mg/kg/injection, schedule: Q01DX005 (ip), vehicle: Klucel (hydroxypropylcellulose) (HPC) 99 % of control | dose: 200.0 mg/kg/injection, schedule: Q01DX005 (ip), vehicle: Klucel (hydroxypropylcellulose) (HPC) 104 % of control

Cc1c(N)c(=O)oc2cc3occc(=O)c3cc12
inactive: [15] 91 % of control | [16] 89 % of control | [17] 92 % of control

CCS1=C(C(C)=O)C(=O)OC(C)C1 (configuration not stated)
inactive: [8] 100 % of control | [9] 100 % of control | [10] 106 % of control

Nc1cc2ccccc2c(Br)n1
inactive: [15] 100 % of control | [16] 95 % of control | [17] 100 % of control

Cc1cccc(N(CCOS(C)(=O)=O)CCOS(C)(=O)=O)c1
inactive: dose: 1.56 mg/kg/injection, schedule: Q01DX009 (ip), vehicle: saline 95 % of control | [4] 98 % of control | [5] 100 % of control | [18] 87 % of control | [7] 102 % of control

CC(c1ccccc1)[c-]1[c-][c-][c-][c-]1.[Cl][Zr][Cl].[c-]1[c-][c-][cH-][c-]1 (configuration not stated)
inactive: dose: 3.12 mg/kg/injection, schedule: Q01DX009 (ip), vehicle: saline with Tween-80 93 % of control | dose: 6.25 mg/kg/injection, schedule: Q01DX009 (ip), vehicle: saline with Tween-80 104 % of control | [18] 104 % of control | dose: 50.0 mg/kg/injection, schedule: Q01DX009 (ip), vehicle: saline with Tween-80 95 % of control

CN(C)C1CCC(NC2=CC(=O)C(NC3CCC(N(C)C)CC3)=CC2=O)CC1 (configuration not stated)
inactive: dose: 1.56 mg/kg/injection, schedule: Q01DX005 (ip), vehicle: distilled water + alcohol 95 % of control | dose: 3.12 mg/kg/injection, schedule: Q01DX005 (ip), vehicle: distilled water + alcohol 99 % of control | dose: 6.25 mg/kg/injection, schedule: Q01DX005 (ip), vehicle: distilled water + alcohol 100 % of control and 96 % of control

CNC(=S)N(C)CCCCN(C)C(=S)NC
inactive: [14] 102 % of control | dose: 100.0 mg/kg/injection, schedule: Q01DX009 (ip), vehicle: saline 105 % of control | dose: 200.0 mg/kg/injection, schedule: Q01DX009 (ip), vehicle: saline 100 % of control

CSCCCNC(=O)c1csc(-c2csc(CCNC(=O)[C@@H](NSc3ccccc3[N+](=O)[O-])[C@@H](C)O)n2)n1
inactive: dose: 6.25 mg/kg/injection, schedule: Q01DX005 (ip), vehicle: saline with Tween-80 100 % of control | dose: 12.5 mg/kg/injection, schedule: Q01DX005 (ip), vehicle: saline with Tween-80 104 % of control | dose: 25.0 mg/kg/injection, schedule: Q01DX005 (ip), vehicle: saline with Tween-80 95 % of control | [1] 87 % of control | [3] 87 % of control

CC(C)=CCc1ccc2c(c1)CCCN2C
inactive: dose: 100.0 mg/kg/injection, schedule: Q04DX002 (ip), vehicle: saline with Tween-80 108 % of control | dose: 200.0 mg/kg/injection, schedule: Q04DX002 (ip), vehicle: saline with Tween-80 108 % of control

CC1(O)COC1(c1ccccc1)c1ccccc1 (configuration not stated)
inactive: [11] 93 % of control | [12] 96 % of control | [13] 93 % of control
